Results as given in PubChem BioAssay (NCI).
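48-hour exposure; five concentrations; linearly interpolated endpoints. At the GI50, growth is halved. Definition used: TGI = concentration required for complete inhibition of growth.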

How the values were obtained:
Experiment in all cases: NCI-60 cell line screen, 48 h
[1] = test system: EKVX NSCLC
[2] = test system: T-47D breast
[3] = test system: RXF 393 renal
[4] = test system: HT29 colon
[5] = test system: NCI/ADR-RES ovarian
[6] = test system: HCT-116 colon
[7] = test system: OVCAR-5 ovarian
[8] = test system: U251 CNS
[9] = test system: 786-0 renal
[10] = test system: HL-60(TB) leukemia
[11] = test system: MALME-3M melanoma
[12] = test system: A498 renal
[13] = test system: SNB-19 CNS
[14] = test system: IGROV1 ovarian
[15] = test system: SF-268 CNS
[16] = test system: COLO 205 colon
[17] = test system: SK-MEL-2 melanoma
[18] = test system: MDA-MB-231 breast
[19] = test system: OVCAR-8 ovarian
[20] = test system: HOP-62 NSCLC
[21] = test system: BT-549 breast
[22] = test system: K-562 leukemia
[23] = test system: SR leukemia
[24] = test system: DU-145 prostate
[25] = test system: UACC-257 melanoma
[26] = test system: CAKI-1 renal
[27] = test system: CCRF-CEM leukemia
[28] = test system: A549 NSCLC
[29] = test system: OVCAR-4 ovarian
[30] = test system: SK-OV-3 ovarian
[31] = test system: HOP-92 NSCLC
[32] = test system: MCF7 breast
[33] = test system: RPMI-8226 leukemia
[34] = test system: NCI-H226 lung
[35] = test system: SF-295 CNS
[36] = test system: LOX IMVI melanoma
[37] = test system: SNB-75 CNS
[38] = test system: ACHN renal
[39] = test system: SK-MEL-28 melanoma
[40] = test system: M14 melanoma
[41] = test system: HCT-15 colon
[42] = test system: MDA-MB-435
[43] = test system: NCI-H522 lung
[44] = test system: HCC-2998 colon
[45] = test system: OVCAR-3 ovarian
[46] = test system: MOLT-4 leukemia
[47] = test system: NCI-H460 lung
[48] = test system: SF-539 CNS
[49] = test system: TK-10 renal
[50] = test system: PC-3 prostate
[51] = test system: HS 578T breast
[52] = test system: SN12C renal
[53] = test system: UACC-62 melanoma
[54] = test system: KM12 colon
[55] = test system: SW-620 colon
[56] = test system: UO-31 renal
[57] = test system: SK-MEL-5 melanoma

COc1cc(OC)c(S(N)(=O)=O)cc1C(=O)/C=C/c1ccccc1
GI50 [1]: 14.2 µM
TGI [1]: 27.6 µM
GI50 [2]: 2.09 µM
TGI [2]: 12.1 µM
GI50 [3]: 1.9 µM
TGI [3]: 7.74 µM
GI50 [4]: 4.02 µM
TGI [4]: 13.8 µM
GI50 [5]: 15.5 µM
TGI [5]: 57.6 µM
GI50 [6]: 1.49 µM
TGI [6]: 14.8 µM
GI50 [7]: 13.2 µM
TGI [7]: 26.7 µM
GI50 [8]: 2.92 µM
TGI [8]: 15.2 µM
GI50 [9]: 4.82 µM
TGI [9]: 20.8 µM
GI50 [10]: 2.27 µM
TGI [10]: 23.2 µM
GI50 [11]: 13.9 µM
TGI [11]: 29.3 µM
GI50 [12]: 16.9 µM
TGI [12]: 30.7 µM
GI50 [13]: 14 µM
TGI [13]: 28.5 µM
GI50 [14]: 9.74 µM
TGI [14]: 27.6 µM
GI50 [15]: 5.88 µM
TGI [15]: 22.9 µM
GI50 [16]: 10.6 µM
TGI [16]: 24 µM
GI50 [17]: 12.6 µM
TGI [17]: 26.5 µM
GI50 [18]: 11.9 µM
TGI [18]: 27 µM
GI50 [19]: 11.3 µM
TGI [19]: 24.1 µM
GI50 [20]: 9.51 µM
TGI [20]: 22.6 µM
GI50 [21]: 2.65 µM
TGI [21]: 14.1 µM
GI50 [22]: 1.5 µM
TGI [22]: 22.3 µM
GI50 [23]: 1.73 µM
TGI [23]: 24.8 µM
GI50 [24]: 1.88 µM
TGI [24]: 13.9 µM
GI50 [25]: 9.96 µM
TGI [25]: 21.8 µM
GI50 [26]: 1.86 µM
TGI [26]: 15.6 µM
GI50 [27]: 3.93 µM
TGI [27]: 67.2 µM
GI50 [28]: 10.5 µM
TGI [28]: 22.7 µM
GI50 [29]: 11.8 µM
TGI [29]: 25.7 µM
GI50 [30]: 14.4 µM
TGI [30]: 27.6 µM
GI50 [31]: 2.06 µM
TGI [31]: 12 µM
GI50 [32]: 0.97 µM
TGI [32]: 14.2 µM
GI50 [33]: 2.98 µM
TGI [33]: 21.4 µM
GI50 [34]: 10 µM
TGI [34]: 26.4 µM
GI50 [35]: 15.7 µM
TGI [35]: 30.3 µM
GI50 [36]: 0.335 µM
TGI [36]: 12.4 µM
GI50 [37]: 2.08 µM
TGI [37]: 7.32 µM
GI50 [38]: 7 µM
TGI [38]: 20.1 µM
GI50 [39]: 12.5 µM
TGI [39]: 25.3 µM
GI50 [40]: 7.51 µM
TGI [40]: 23.8 µM
GI50 [41]: 3.55 µM
TGI [41]: 20.1 µM
GI50 [42]: 2.12 µM
TGI [42]: 12 µM
GI50 [43]: 6.56 µM
TGI [43]: 20.8 µM
GI50 [44]: 12.5 µM
TGI [44]: 26.2 µM
GI50 [45]: 2.71 µM
TGI [45]: 13.1 µM
GI50 [46]: 10.1 µM
TGI [46]: 43.1 µM
GI50 [47]: 1.95 µM
TGI [47]: 12.5 µM
GI50 [48]: 2.44 µM
TGI [48]: 8.98 µM
GI50 [49]: 12.9 µM
TGI [49]: 25.8 µM
GI50 [50]: 5.95 µM
TGI [50]: 20.6 µM
GI50 [51]: 5.89 µM
TGI [51]: 43.3 µM
GI50 [52]: 3.49 µM
TGI [52]: 16.9 µM
GI50 [53]: 12.2 µM
TGI [53]: 26.9 µM
GI50 [54]: 3.31 µM
TGI [54]: 18.5 µM
GI50 [55]: 2.68 µM
TGI [55]: 13.4 µM
GI50 [56]: 4.76 µM
TGI [56]: 19 µM
GI50 [57]: 17.6 µM
TGI [57]: 32.4 µM
